Patent US20250171419A1, “NOVEL NICOTINAMIDE PHOSPHORIBOSYLTRANSFERASE INHIBITORS AND USES THEREOF” (Heidelberg Pharma Research GmbH, priority 2023, published 2025)
Counter-ions that a name gives are not always drawn.

What was measured:
[1] = test system: murine renal cell carcinoma model RENCA; settings: cited from earlier work
[2] = Acid hydration stability (TFA, 37° C); assay type: physicochemical; settings: for tendency of cyanoguanidine group to hydration and degradation: pH values below 2, formation of guanylurea intermediates
Description: Since the lysosomal pH is acidic and contains numerous hydrolases, NAMPT inhibitors bearing cyanoguanidines may therefore be degraded in the lysosome. […] The product was confirmed by mass spectrometry and NMR analysis. The inhibitor C42a was designed as an alternative to cyanoguanidine compounds containing urea as non-hydratable group.

[3] = test system: human breast and lung cancer cell line-derived in vivo models; settings: cited from earlier work
[4] = test system: solid tumors; settings: cited from earlier work
[5] = assay type: in vitro ADME, human
Experimental: The test compound was incubated at a concentration of 17.7 μM in a mixture of human liver lysosomal extract (tebu-bio, Seikisui Xenotech, Ref: H0610.L) and 1× catabolism buffer (tebu-bio, Seikisui Xenotech, Ref: K5200) for […] at 37° C. Samples were taken at 0, 2, 4, 24, 48, 72, 120, and 168 hours. Control samples without lysosomal extract were also set up under the same conditions as the test sample. All measurements and samples were taken in duplicate.
To measure the reaction, the compound was quenched by adding 380 μL of internal standard buffer (30 ng/mL of internal standard in ACN) to 20 μL of the sample. An amanitin-stable isotope-labelled analogue was used as the internal standard.
22 μL of the quenched sample was analysed using UPLC-MS-MS QTrap 5500 (Column: Waters ACQUITY UPLC BEH Amide, […], 2.1×100 mm, product code: 186004801). This assay was related to compound 113. Compound 113 was expected to be the main degradation compound after lysosomal enzymatic digestion and was used as a reference for the detection of catabolites after digestion in the HPLC-MS analysis.
The ion fragments detection method was multiple reaction monitoring (MRM). In this method, the mass is measured by a tandem mass spectrometer where the initial molecular ion is selected as initial mass. […]

[6] = test system: L540 CD30+ cell line; assay: Cytotoxicity in L540 CD30+ cell line, CellTiter-Glo 2.0 readout after 96 h; assay type: cell-based; settings: FIG. 10 C
Experimental: L540 CD30^+ cell lines were used for the study. 2×10^3 Cells were added to each well of a 96-well plate, but for the blank wells. Test compounds and controls were added to their corresponding lanes in a 7-step 1:5 dilution series starting with the concentration of 1×10^−5 M for non-conjugated inhibitors and 1×10^−7 M for ADCs and free monoclonal antibody. The dilution scheme was prepared in triplicates for each sample. Cells were incubated at 37° C. at 5% CO2 for 96 h in an evaporation chamber. Readout was performed using CellTiter-Glo 2.0 assay, according to the kit instructions (Promega; Cat #G9242).
2×10^3 Cells were added to each well of a 96-well plate, but for the blank wells. […] Cells were incubated at 37° C. at 5% CO2 for 96 h in an evaporation chamber. Readout was performed using CellTiter-Glo 2.0 assay, according to the kit instructions (Promega; Cat #G9242).
2×10^3 Cells were added to each well of a 96-well plate, but for the blank wells. […] Cells were incubated at 37° C. at 5% CO2 for 96 h in an evaporation chamber. Readout was performed using CellTiter-Glo® 2.0 assay, according to kit instructions (Promega; Cat #G9242).

## O=C(/C=C/c1cccnc1)NCCCCC1CCN(C(=O)c2ccccc2)CC1 [Daporinad, (E)-N-[4-(1-benzoylpiperidin-4-yl)butyl]-3-(pyrldine-3-yl)-acrylamide]
[1]
  in vivo efficacy: In vivo efficacy of daporinad was shown

## Nc1cccc(C(=O)N2CCC(O)(CCCCNC(=O)N3Cc4ccccc4C3)CC2)c1 [C42a, N-(4-(1-(3-aminobenzoyl)-4-hydroxypiperidin-4-yl)butyl)isoindoline-2-carboxamide TFA salt]
[2]; identical conditions as those that triggered the hydration of 36
  time stable under the conditions that triggered the hydration of 36: more than 2 weeks
[2]; pH values below 2 at 37° C for more than 2 weeks
  hydration at pH values below 2: no hydration

## N#CNC(=Nc1ccncc1)NCCCCCCOc1ccc(Cl)cc1 [CHS-828, N-[6-(4-chlorophenoxy)hexyl]-N′-cyano-N″-4-pyridinyl-guanidine]
[3]
  cytotoxic effects in vitro and in vivo: highly cytotoxic effects
[4]
  observed responses in the clinical trials: stable disease

## N#C/N=C(\NCCCCC1CCN(C(=O)c2cccc(N)c2)CC1)Nc1cccnc1 [compound 36, (E)-1-(4-(1-(3-aminobenzoyl)piperidin-4-yl)butyl)-2-cyano-3-(pyridin-3-yl)guanidine]
[2]; acid pH
  hydration of the cyanoguanidine moiety under acid pH: undergoes hydration of the cyanoguanidine moiety to guanylurea
[2]; pH values above 2, after 48 hours at 37° C
  acid hydration reaction involving TFA, pH above 2: the reaction did not occur
[2]; pH values below 2, within 24 hours at 37° C
  acid hydration reaction involving TFA, pH below 2: guanylurea 113 was obtained in excellent yield
[2]
  tendency of cyanoguanidine group to hydration and degradation: tend towards hydration and degradation
[5]
  degradation in the absence of lysosomal enzymes: no degradation is observed
  degradation versus generation of the hydrated product 113: inversely correlates

## NC(=O)/N=C(\NCCCCC1CCN(C(=O)c2cccc(N)c2)CC1)Nc1cccnc1 [compound 113, (E)-1-(((4-(1-(3-aminobenzoyl)piperidin-4-yl)butyl)amino)(pyridin-3-ylamino)methylene)urea]
[6]
  toxicity in L540 cells compared to inhibitor 36: significantly reduced toxicity

## N#C/N=C(\NCCCCC1(O)CCN(C(=O)c2cccc(N)c2)CC1)Nc1cccnc1 [C22a, (E)-1-(4-(1-(3-aminobenzoyl)-4-hydroxypiperidin-4-yl)butyl)-2-cyano-3-(pyridin-3-yl)guanidine]
[2]
  tendency of cyanoguanidine group to hydration and degradation: tend towards hydration and degradation
